Laboratory results from paper PMC5983740, “Tryptophan-Containing Dual Neuroprotective Peptides: Prolyl Endopeptidase Inhibition and Caenorhabditis elegans Protection from β-Amyloid Peptide Toxicity” (International Journal of Molecular Sciences, 2018).
Ends that are not written are not given here.

Assays:
[1] = system: C. elegans wild-type strain N2; test: C. elegans oxidative stress assay (H2O2); format: in vivo, Caenorhabditis elegans; details: 2 mM H2O2 for 5 h
Procedure: (§1) Wild-type Bristol strain N2 and the transgenic strain CL4176 (smg-1^ts [pAF29(myo-3/Aβ1–42/let UTR) + pRF4(rol-6(su10069))]) were obtained from the Caenorhabditis Genetics Center (College of Biological Sciences, University of Minnesota, Saint Paul, MN, USA) and were used for oxidative stress experiments and paralysis assays, respectively. C. elegans strains were routinely propagated on Nematode Growth Medium (NGM) plates with Escherichia coli strain OP50 as a food source at 20 °C (N2) or at 16 °C (CL4176). Worms were synchronized by isolating eggs from gravid adults at 20 °C (N2) or at 16 °C (CL4176), and eggs were hatched overnight in NGM plates.
(§2) In the oxidative and paralysis experiments, worms were fed with the different compounds from egg to adult stages, and transferred to new plates every two days.
For oxidative stress experiments, strain N2 was egg-synchronized in NGM plates (control medium) and NGM supplemented with 0.1 µg/mL peptides or 0.1 mg/mL vitamin C (positive control). The viability of C. elegans was assessed after 2 mM hydrogen peroxide (H2O2)-induced oxidative stress for 5 h. Experiments were carried out in triplicate.

[2] = molecular target: T1, prolyl endopeptidase (PEP) (Elizabethkingia meningoseptica, UniProt P27028); test: biochemical; format: biochemical; details: for PEP Residual Activity (%) / PEP inhibition (in words) / PEP inhibitory activity (% inhibition): peptide 1 mg/mL; for PEP Residual Activity (%): % of control without peptide (100%), pH 7, 30 °C, 30 min, mean ± SD of three replicates, SD; for PEP inhibition (in words): P-containing peptides; for PEP inhibition: highest concentration tested, 3.3 mg/mL
T1 construct: purchased Seikagaku Corporation (Tokyo, Japan)
Procedure: The PEP activity was determined as previously described with minor modifications. Enzyme assays were performed in 96-well microplates using Z-Gly-Pro-p-nitroanilide as a substrate and measuring the increase in absorbance at 410 nm due to the release of p-nitroaniline. Ten µL of tenfold peptide or hydrolysate solution in 100 mM sodium phosphate buffer, pH 7 ([…] for LFHs), 30 µL of a 0.1 U/mL PEP solution in 100 mM sodium phosphate buffer (pH 7) and 35 µL of the same sodium phosphate buffer were pre-incubated at 30 °C for 5 min, and the mixture incubated with 25 µL of 2 mM Z-Gly-Pro-p-nitroanilide in 40% 1,4-dioxane for 30 min at the same temperature. The reaction was finished by the addition of 100 µL 10% Triton X-100 in 1 M sodium acetate buffer (pH 4), and the absorbance measured at 410 nm in a microplate reader. Data are expressed as the percentage of PEP residual activity with respect to a control without peptide (100%).
The IC50 value of a peptide was defined as the concentration required to inhibit 50% of the PEP activity and the value for each experiment was estimated by non-linear regression of the experimental data to a four-parameter logistic curve using the software package SigmaPlot v 13.0 (SPSS Inc., Chicago, IL, USA).

[3] = system: transgenic C. elegans strain CL4176 engineered to express human Aβ1–42; test: C. elegans paralysis assay (Aβ1–42-induced paralysis); format: in vivo, Caenorhabditis elegans
Procedure: as §1, §2
Paralysis is induced in strain CL4176 by the expression of a muscle-specific Aβ1–42 which depends on up-shifting temperature from 16 to 25 °C [7, 8]. For paralysis experiments, strain CL4176 maintained at 16 °C was egg-synchronized in plates containing NGM (control medium) and NGM with peptides (0.02–5 µg/mL). Transgene expression was induced by up-shifting the temperature from 16 to 25 °C, starting 24 h after egg laying and maintained for 24 h. The worms were incubated at 20 °C until all the worms in the experiment became paralyzed. Paralysis was scored 24 h after induction. Paralysis in induced worms was compared with non-induced worms (maintained at 16 °C until the end of the paralysis assay). Experiments were carried out at least in duplicate.

[4] = molecular target: T1, prolyl endopeptidase (PEP); design: method as in 2 sources, ref 29 = [29]; PMID 26574880; doi:10.1039/C5FO01262G; 29. Hsieh C.-H. Wang T.-Y. Hung C.-C. Hsieh Y.-L. Hsu K.-C. Isolation of prolyl endopeptidase inhibitory peptides from a sodium caseinate hydrolysate Food Funct. 2016 7 565 573 10.1039/C5FO01262G 2657 ||| ref 31 = [31]; PMID 23675471; doi:10.1371/journal.pone.0063283; 31. Martorell P. Bataller E. Llopis S. Gonzalez N. Alvarez B. Monton F. Ortiz P. Ramon D. Genoves S. A cocoa peptide protects Caenorhabditis elegans from oxidative stress and β-amyloid peptide toxicit; details: cocoa hydrolysate peptide; cited from earlier work
[5] = 0.1 µg/mL, average paralysis curve of the independent trials
[6] = dose 0.1 µg/mL, trial 1, hours after temperature up-shift
[7] = dose 0.1 µg/mL, trial 2, hours after temperature up-shift
[8] = dose 0.1 µg/mL, trial 3, hours after temperature up-shift

T1 sequence (P27028 21-705): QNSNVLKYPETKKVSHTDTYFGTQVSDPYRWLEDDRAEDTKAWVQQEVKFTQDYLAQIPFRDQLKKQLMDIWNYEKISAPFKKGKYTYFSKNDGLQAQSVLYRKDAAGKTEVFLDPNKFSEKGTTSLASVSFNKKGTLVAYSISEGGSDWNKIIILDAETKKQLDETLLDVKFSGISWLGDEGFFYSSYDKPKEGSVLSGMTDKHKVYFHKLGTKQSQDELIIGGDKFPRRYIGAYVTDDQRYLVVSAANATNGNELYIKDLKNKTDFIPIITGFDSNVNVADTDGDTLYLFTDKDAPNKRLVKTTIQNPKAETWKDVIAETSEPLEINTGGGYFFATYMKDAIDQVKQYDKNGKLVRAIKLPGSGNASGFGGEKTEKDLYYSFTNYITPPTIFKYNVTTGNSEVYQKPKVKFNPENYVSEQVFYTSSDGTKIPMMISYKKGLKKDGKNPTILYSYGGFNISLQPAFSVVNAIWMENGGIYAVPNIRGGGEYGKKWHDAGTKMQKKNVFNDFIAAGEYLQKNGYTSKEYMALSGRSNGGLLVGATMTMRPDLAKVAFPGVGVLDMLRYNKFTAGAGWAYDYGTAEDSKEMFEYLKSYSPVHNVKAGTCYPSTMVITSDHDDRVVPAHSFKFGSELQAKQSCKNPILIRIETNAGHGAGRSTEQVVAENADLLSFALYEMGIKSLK

Molecule: O=C1O[C@H]([C@@H](O)CO)C(O)=C1O [vitamin C, reference compound]
- worm survival after oxidative stress (in words) ([1]; vitamin C 10 µg/mL (Figure 4; method says 0.1 mg/mL), positive control): significant protection

Molecule: Ac-RKWFHLW-NH2 [PACEI48L, synthetic heptapeptide Ac-RKWFHLW-NH2]
- PEP Residual Activity (%) [2]: 61.4 ± 4.4 (a) %

Molecule: Ac-RKWFLHW-NH2 [PACEI49L, synthetic heptapeptide Ac-RKWFLHW-NH2]
- PEP Residual Activity (%) [2]: 46.8 ± 9.1 (b) %

Molecule: Ac-RKWHFLW-NH2 [PACEI50L]
- PEP Residual Activity (%) [2]: 6.4 ± 2.3 (c) %
- decrease of paralyzed worms compared with control fed nematodes at 49 h ([3]; 0.1 µg/mL, average curves): 25.2%
- % of non-paralyzed worms at onset paralysis [3, 5]: 99%
- Onset Paralysis, time [3, 5]: 41 h
- Paralyzed Worms (percentage at 49 h) [3, 5]: 42.3%
- effect on paralysis (in words) ([3]; dose 0.02 µg/mL, data not shown): did not provide any effect
- % of non-paralyzed worms at onset paralysis ([3]; dose 0.1 µg/mL, trial 1): 98.4%
- Paralyzed Worms at 49 h ([3]; dose 0.1 µg/mL, trial 1): 48.7%
- Onset Paralysis, time [3, 6]: 41 h
- % of non-paralyzed worms at onset paralysis ([3]; dose 0.1 µg/mL, trial 2): 99.1%
- Paralyzed Worms at 49 h ([3]; dose 0.1 µg/mL, trial 2): 21.9%
- Onset Paralysis, time [3, 7]: 43 h
- % of non-paralyzed worms at onset paralysis ([3]; dose 0.1 µg/mL, trial 3): 97.5%
- Paralyzed Worms at 49 h ([3]; dose 0.1 µg/mL, trial 3): 56.2%
- Onset Paralysis, time [3, 8]: 43 h
- % of non-paralyzed worms at onset paralysis ([3]; dose 0.5 µg/mL, trial 1): 96.7%
- Paralyzed Worms at 49 h ([3]; dose 0.5 µg/mL, trial 1): 41.3%
- Onset Paralysis, time ([3]; dose 0.5 µg/mL, trial 1, hours after temperature up-shift): 45 h
- % of non-paralyzed worms at onset paralysis ([3]; dose 0.5 µg/mL, trial 2): 99.2%
- Paralyzed Worms at 49 h ([3]; dose 0.5 µg/mL, trial 2): 41.7%
- Onset Paralysis, time ([3]; dose 0.5 µg/mL, trial 2, hours after temperature up-shift): 43 h
- worm survival after oxidative stress (in words) ([1]; peptide 0.1 µg/mL, triplicate): none of them was able to increase the worm survival

Molecule: Ac-RKWHLFW-NH2 [PACEI51L, synthetic heptapeptide Ac-RKWHLFW-NH2]
- PEP Residual Activity (%) [2]: 71.6 ± 4.9 (a) %

Molecule: Ac-RKWLFHW-NH2 [PACEI52L, synthetic heptapeptide Ac-RKWLFHW-NH2]
- PEP Residual Activity (%) [2]: 65.9 ± 3.6 (a) %

Molecule: Ac-RKWLHFW-NH2 [PACEI53L, synthetic heptapeptide Ac-RKWLHFW-NH2]
- PEP Residual Activity (%) [2]: 71.5 ± 4.5 (a) %

Molecule: DNYDNSAGKWWVT [Peptide 13L]
- IC50 (PEP inhibition) [4]: 190 µg/mL

Molecule: DRDQY [PKH1, synthetic peptide identified in proteinase K lactoferrin hydrolysate, DRDQY]
- PEP Residual Activity (%) [2]: 102.7 ± 7.0%

Molecule: DRDQYELL [PKH7, synthetic peptide identified in proteinase K lactoferrin hydrolysate, DRDQYELL]
- PEP Residual Activity (%) [2]: 115.3 ± 4.2 %

Molecule: ENLPEKA [PKH3, synthetic peptide identified in proteinase K lactoferrin hydrolysate, ENLPEKA]
- PEP Residual Activity (%) [2]: 97.1 ± 0.1%
- PEP inhibition (in words) [2]: failed to inhibit PEP

Molecule: GGRPTYEEY [PKH5, synthetic peptide identified in proteinase K lactoferrin hydrolysate, …]
- PEP Residual Activity (%) [2]: 96.9 ± 2.1%
- PEP inhibition (in words) [2]: failed to inhibit PEP

Molecule: GILRPY [PKH6, synthetic peptide identified in proteinase K lactoferrin hydrolysate, GILRPY]
- PEP Residual Activity (%) [2]: 97.2 ± 4.0%
- PEP inhibition (in words) [2]: failed to inhibit PEP

Molecule: GILRPYL [PKH10, synthetic peptide identified in proteinase K lactoferrin hydrolysate, GILRPYL]
- PEP Residual Activity (%) [2]: 103.9 ± 0.8%
- PEP inhibition (in words) [2]: failed to inhibit PEP

Molecule: NEGLTW [PKH8, LF-derived hexapeptide NEGLTW]
- PEP inhibitory activity (% inhibition) [2]: 12%
- PEP Residual Activity (%) [2]: 87.1 ± 1.0 %

Molecule: NIPMGL [PKH9, synthetic peptide identified in proteinase K lactoferrin hydrolysate, NIPMGL]
- PEP Residual Activity (%) [2]: 95.5 ± 3.4%
- PEP inhibition (in words) [2]: failed to inhibit PEP

Molecule: RIPSKV [PKH4, synthetic peptide identified in proteinase K lactoferrin hydrolysate, RIPSKV]
- PEP Residual Activity (%) [2]: 109.6 ± 2.2 %
- PEP inhibition (in words) [2]: failed to inhibit PEP

Molecule: RKAHFLA [PACEI50L-v2, PACEI50L derivative, both W residues at position 3 and 7 replaced with A, RKAHFLA]
- PEP inhibition [2]: did not exhibit a clear inhibitory effect
- final percentage of non-paralyzed worms, lower than the control conditions by ([3]; 0.1 µg/mL, average curves): 5.6%
- % of non-paralyzed worms at onset paralysis [3, 5]: 92%
- Onset Paralysis, time [3, 5]: 41 h
- Paralyzed Worms (percentage at 49 h) [3, 5]: 73.1%
- % of non-paralyzed worms at onset paralysis ([3]; dose 0.1 µg/mL, trial 1): 91.3%
- Paralyzed Worms at 49 h ([3]; dose 0.1 µg/mL, trial 1): 74.9%
- Onset Paralysis, time [3, 6]: 41 h
- % of non-paralyzed worms at onset paralysis ([3]; dose 0.1 µg/mL, trial 2): 90.7%
- Paralyzed Worms at 49 h ([3]; dose 0.1 µg/mL, trial 2): 75.9%
- Onset Paralysis, time [3, 7]: 41 h
- % of non-paralyzed worms at onset paralysis ([3]; dose 0.1 µg/mL, trial 3): 94.7%
- Paralyzed Worms at 49 h ([3]; dose 0.1 µg/mL, trial 3): 68.4%
- Onset Paralysis, time [3, 8]: 41 h

Molecule: RKWHFLA [PACEI50L-v1]
- PEP inhibition [2]: 20%
- % of non-paralyzed worms at onset paralysis [3, 5]: 94%
- Onset Paralysis, time [3, 5]: 41 h
- Paralyzed Worms (percentage at 49 h) [3, 5]: 62.8%
- % of non-paralyzed worms at onset paralysis ([3]; dose 0.1 µg/mL, trial 1): 98.0%
- Paralyzed Worms at 49 h ([3]; dose 0.1 µg/mL, trial 1): 62.5%
- Onset Paralysis, time [3, 6]: 41 h
- % of non-paralyzed worms at onset paralysis ([3]; dose 0.1 µg/mL, trial 2): 91.7%
- Paralyzed Worms at 49 h ([3]; dose 0.1 µg/mL, trial 2): 71.9%
- Onset Paralysis, time [3, 7]: 41 h
- % of non-paralyzed worms at onset paralysis ([3]; dose 0.1 µg/mL, trial 3): 93.3%
- Paralyzed Worms at 49 h ([3]; dose 0.1 µg/mL, trial 3): 53.7%
- Onset Paralysis, time [3, 8]: 41 h

Molecule: SVDGKEDLIA [PKH11-v1]
- IC50 [2]: 2870 µM

Molecule: SVDGKEDLIW [PKH11]
- IC50 [2]: 1810 µM
- PEP inhibitory activity (% inhibition) [2]: 22%
- PEP Residual Activity (%) [2]: 78.0 ± 3.1 %
